The assay relates to human PBMCs. Kind of assay: Cytokine secretion from human PBMCs, homeostatic and Poly (I:C) challenged conditions (Example 6). In kind it is cell-based. The settings on record: homeostatic (unchallenged) conditions, 20 hrs; bacteria grown on 2′FL; 2′FL 2%.

Regarding 2′-Fucosyllactose [2′FL], the IFN-γ secretion result is recorded as “did not induce secretion” and the IL-10 secretion entry is “did not induce secretion”.

These data come from patent US20260240923A1, “COMPOSITION COMPRISING BIFIDOBACTERIUM ANIMALIS SUBSP. LACTIS STRAIN AND 2’-FUCOSYLLACTOSE” (Chr. Hansen A/S, priority 2023, published 2026).
